From ChEMBL document CHEMBL1125944, “Imidazo[1,2-a]piperazines as mechanistic inhibitors of serine proteinases” (Bioorg Med Chem Lett, 1991)

Target: T1, Neutrophil elastase (Homo sapiens, UniProt P08246)
T1 sequence (P08246 whole entry): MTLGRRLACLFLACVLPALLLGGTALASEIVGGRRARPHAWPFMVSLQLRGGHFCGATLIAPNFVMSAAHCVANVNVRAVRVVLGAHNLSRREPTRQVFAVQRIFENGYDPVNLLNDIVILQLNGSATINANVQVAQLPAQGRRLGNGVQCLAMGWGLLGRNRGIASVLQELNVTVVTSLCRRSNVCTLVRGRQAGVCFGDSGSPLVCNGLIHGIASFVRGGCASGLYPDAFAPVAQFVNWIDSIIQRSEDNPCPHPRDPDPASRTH
Test: Compound was tested for its inhibitory activity against human leukocyte Elastase (HLE)

Structure (SMILES): CC(C)C1N=C2CN(C3Cc4ccccc4C3)C(=O)[C@H](C(C)C)N2C1(O)C(F)(F)F (stereo partly specified)
- IC50: 8.74 µM
